Measurements: patent US20260206761A1, “HETEROARYL-TRIAZOLE COMPOUNDS AS PESTICIDES” (Bayer Aktiengesellschaft, priority 2019, published 2026)

Legend:
Format in all cases: in vivo
[1] = tested on: Rhipicephalus microplus larvae (strain Parkhurst, resistant against synthetic pyrethroids); assay: Rhipicephalus (Boophilus) microplus in-vitro contact test, larval cattle tick; conditions: after 48 hours, read-out: activity (efficacy: larvae dead or moribund); for pest or weed control at 100 g/ha: application rate 1 pg/cm^2 (=100 g/ha); for pest or weed control at 500 g/ha: application rate 5 pg/cm^2 (=500 g/ha)
Protocol: Rhipicephalus (Boophilus) microplus—In-Vitro Contact Tests Larval Cattle Tick (Strain Parkhurst. Resistant Against Synthetic Pyrethroids)
(§1) 9 mg compound is solved in 1 mL acetone and diluted with acetone to the desired concentration. 250 μL of the test solution is filled in 25 mL glass test tubes and homogeneously distributed on the inner walls by rotation and tilting on a shaking device (2 h at 30 rpm). With a compound concentration of 900 ppm, an inner surface of 44.7 cm^2 and a homogeneous distribution, a dose of 5 μg/cm^2 is achieved.
After the solvent has evaporated, each test tube is filled with 20-50 cattle tick larvae (Rhipicephalus microplus), closed with a perforated lid and incubated in a horizontal position at 85% relative humidity and 27° C. in an incubator. After 48 hours efficacy is determined. The larvae are patted on the ground of the tubes and negative geotactic behaviour is recorded.
An efficacy of 100% means all larvae are dead or moribund; 0% means no larvae are dead or moribund.

[2] = tested on: larvae of the banded cucumber beetle (Diabrotica balteata); assay: Diabrotica balteata spray test; conditions: 168 h, application rate 100 g/ha (=32 pg/well), after 7 days, read-out: activity (efficacy: seedlings grown)
Protocol: Diabrotica balteata—spray test
(§2) Solvent: 78.0 parts by weight of acetone • • 1.5 parts by weight of dimethylformamide
(§3) Emulsifier: alkylarylpolyglycol ether
(§4) To produce a suitable preparation of active compound, 1 part by weight of active compound is mixed with the stated amount of solvent, and the concentrate is diluted with water, containing an emulsifier concentration of 1000 ppm, to the desired concentration. Further test concentrations are prepared by dilution with emulsifier containing water.
Soaked wheat seeds (Triticum aestivum) are placed in a multiple well plate filled with agar and some water and are incubated for 1 day to germinate (5 seeds per well). The germinated wheat seeds are sprayed with a test solution containing the desired concentration of the active ingredient. Afterwards each unit is infected with 10-20 larvae of the banded cucumber beetle (Diabrotica balteata).
After 7 days efficacy in % is determined. 100% means all the seedlings have grown up like in the untreated, uninfected control; 0% means none of the seedlings have grown.

[3] = tested on: green peach aphid (Myzus persicae); assay: Myzus persicae oral test; conditions: 120 h, application rate 4 ppm, after 5 days
Protocol: Solvent: 100 parts by weight acetone
To produce a suitable preparation of active compound, 1 part by weight of active compound is mixed with the stated amount of solvent, and the concentrate is diluted with water to the desired concentration.
50 μL compound solution is filled in microtiter plates and 150 μL IPL41 insect medium (33%+15% sugar) is added to obtain a total volume of 200 μL per well. Afterwards the plates are sealed with parafilm through which a mixed population of the green peach aphid (Myzus persicae) can suck on the compound preparation.
After 5 days mortality in % is determined. 100% means all aphids have been killed and 0% means none of the aphids have been killed.

[4] = tested on: fall armyworm larvae (Spodoptera frugiperda); assay: Spodoptera frugiperda spray test; conditions: 168 h, read-out: activity (mortality)
Protocol: Spodoptera frugiperda—Spray Test
Solvent: 78.0 parts by weight acetone • 1.5 parts by weight dimethylformamide
as §3
as §4, with “solvents” for “solvent,”, “and” for “and the concentrate”
Maize (Zea mays) leaf sections are sprayed with a preparation of the active ingredient of the desired concentration. Once dry, the leaf sections are infested with fall armyworm larvae (Spodoptera frugiperda).
After 7 days mortality in % is determined. 100% means all caterpillars have been killed and 0% means none of the caterpillars have been killed.

[5] = tested on: larvae of the southern green stink bug (Nezara viridula); assay: Nezara viridula spray test; conditions: 96 h, after 4 days; for mortality at 100 g/ha: application rate 100 g/ha; for mortality at 500 g/ha: application rate 500 g/ha
Protocol: Nezara viridula—Spray Test
as §2, §3, §4
Barley plants (Hordeum vulgare) infested with larvae of the southern green stink bug (Nezara viridula) are sprayed with a test solution containing the desired concentration of the active ingredient.
After 4 days mortality in % is determined. 100% means all the stink bugs have been killed; 0% means none of the stink bugs have been killed.

[6] = tested on: adult engorged female ticks (Rhipicephalus microplus); assay: Rhipicephalus (Boophilus) microplus injection test; conditions: 168 h, application rate 4 pg/animal, egg deposition after 7 days, read-out: activity (efficacy: infertile eggs)
Protocol: Rhipicephalus (Boophilus) microplus—Injection Test
Solvent: dimethyl sulfoxide
To produce a suitable preparation of active compound, 10 mg of active compound are dissolved in 0.5 mL solvent, and the concentrate is diluted with solvent to the desired concentration.
Five adult engorged female ticks (Rhipicephalus microplus) are injected with 1 μL compound solution into the abdomen. The ticks are transferred into replica plates and incubated in a climate chamber.
After 7 days egg deposition of fertile eggs is monitored. Eggs where fertility is not visible are stored in a climate chamber till hatching after about 42 days. An efficacy of 100% means all eggs are infertile; 0% means all eggs are fertile.

[7] = tested on: adult brown dog ticks (Rhipicephalus sanguineus); assay: Rhipicephalus sanguineus in-vitro contact test, adult brown dog ticks; conditions: after 48 hours, read-out: activity (efficacy: ticks dead or moribund); for pest or weed control at 100 g/ha: application rate 1 pg/cm^2 (=100 g/ha); for pest or weed control at 5 µg/cm2, 500 g/ha: application rate 5 μg/cm^2 (=500 g/ha)
Protocol: Rhipicephalus sanguineus—In-Vitro Contact Tests with Adult Brown Dog Ticks
as §1
After the solvent has evaporated, each test tube is filled with 5-10 adult brown dog ticks (Rhipicephalus sanguineus), closed with a perforated lid and incubated in a lying position at room temperature and relative humidity. After 48 hours efficacy is determined. The ticks are patted on the ground of the tubes and are incubated on a heating plate at 45-50° C. for at most 5 minutes. Immotile or uncoordinated moving ticks, which are not able to escape the heat by climbing upwards, are marked as dead or moribund.
An efficacy of 100% means all ticks are dead or moribund; 0% means no ticks are dead or moribund.

Row | SMILES | pest or weed control at 100 g/ha [1] | pest or weed control at 500 g/ha [1] | pest or weed control at 100 g/ha [2] | mortality at 4 ppm [3] | mortality at 100 g/ha [4] | mortality at 100 g/ha [5] | mortality at 500 g/ha [5] | pest or weed control at 4 pg [6] | pest or weed control at 100 g/ha [7] | pest or weed control at 5 µg/cm2, 500 g/ha [7]
1 | COc1nc([C@H](C)NC(=O)c2cc(OC(F)F)cc(C3CC3)c2)n(-c2ncc(Cl)cn2)n1 [I-76] | 100% | 100% | 100% | 100% | 100% |  |  |  |  | 
2 | C[C@H](NC(=O)c1cc(OC(F)(F)F)cc(S(C)(=O)=O)c1)c1nc(C2CC2)nn1-c1ccc(Cl)cn1 [I-69] |  |  | 100% | 100% | 100% | 90% |  |  |  | 
3 | C[C@H](NC(=O)c1cc(Cl)cc(S(=O)(=O)C2CC2)c1)c1nc(C2CC2)nn1-c1ccc(Cl)cn1 [I-59] | 100% | 100% | 80% | 100% | 100% | 100% | 100% |  |  | 
4 | COc1nc([C@H](C)NC(=O)c2cc(OC(F)F)cc(C3CC3)c2)n(-c2ccc(C#N)cn2)n1 [I-74] | 100% | 100% | 80% | 100% | 100% |  |  |  |  | 
5 | C[C@H](NC(=O)c1cc(OC(F)F)cc(S(C)(=O)=O)c1)c1nc(C2CC2)nn1-c1ccc(C#N)cn1 [I-65] |  |  | 100% | 100% | 100% | 100% | 100% |  |  | 
6 | COc1nc([C@H](C)NC(=O)c2cc(OC(F)(F)F)cc(C3CC3)c2)n(-c2ccc(C#N)cn2)n1 [I-44] | 100% | 100% | 100% | 90% | 100% |  |  | 100% | 100% | 100%
7 | C[C@H](NC(=O)c1cc(Cl)cc(S(C)(=O)=O)c1)c1nc(C2CC2)nn1-c1ccc(Cl)cn1 [I-58] | 100% | 100% | 100% | 100% | 100% | 100% | 100% |  | 100% | 80%
8 | C[C@H](NC(=O)c1cc(OC(F)F)cc(C2CC2)c1)c1ncnn1-c1ccc(C#N)cn1 [II-62] | 100% | 100% | 100% | 100% | 100% |  |  | 100% | 100% | 100%
9 | COc1nc([C@H](C)NC(=O)c2cc(Cl)cc(S(=O)(=O)C(F)F)c2)n(-c2ccc(C#N)cn2)n1 [I-55] | 100% | 100% | 100% | 100% | 100% |  |  |  |  | 
10 | COc1nc([C@H](C)NC(=O)c2cc(OC(F)(F)F)cc(S(C)(=O)=O)c2)n(-c2ccc(C#N)cn2)n1 [I-75] |  |  | 80% | 100% | 100% | 100% | 90% |  |  | 
11 | C[C@H](NC(=O)c1cc(F)cc(S(C)(=O)=O)c1)c1nc(C2CC2)nn1-c1ccc(Cl)cn1 [I-60] | 100% | 100% | 100% | 100% | 100% | 100% | 100% |  | 100% | 100%
